Results published in ChEMBL document CHEMBL1201862, “PubChem BioAssay data set” (2004).
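Grown in 96-well plates, cells were treated for 48 hours with each compound at five concentrations. Insufficient inhibition: endpoint recorded as highest concentration tested. GI50: concentration for 50% inhibition of growth.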 Calls of active or inactive are those of the source. Rule as the data show it: active = GI50 up to about 1.1 µM and inactive = higher.

Key:
Assay in all cases: NCI-60 cell line screen, 48 h
[1] = system: SNB-78
[2] = system: M19-MEL
[3] = system: DLD-1
[4] = system: KM-20L2
[5] = system: Hs-578T
[6] = system: LXFL 529
[7] = system: BT-549

`COc1cc(/C=C/C(=O)O)ccc1C(=O)O/C=C/c1ccccc1` was tested, and the GI50 [1] was > 100 µM (inactive), the GI50 [2] was > 81.7 µM (inactive) and the GI50 [3] was > 100 µM (inactive). The GI50 [4] was > 100 µM (inactive).
`CCOC(=O)N1CCN(C(=O)Nc2cccc3ccccc23)CC1` was tested, and the GI50 [5] was > 10 µM (inactive).
In the case of `CC(C)C(=O)CC(c1ccc(Br)cc1)N1N=C(C(C)C)CC1c1ccc(Br)cc1` (centres undefined), the GI50 [6] is reported as > 100 µM (inactive), the GI50 [2] is reported as 25.9 µM (inactive) and the GI50 [4] is reported as 45.3 µM (inactive).
`C=CCN1C(=O)/C(=C/c2cccs2)N=C1SC1OC(COC(=O)c2ccccc2)C(OC(=O)c2ccccc2)C1OC(=O)c1ccccc1` (centres undefined) was tested, and the GI50 [7] was > 100 µM (inactive).
For `COc1ccc2c(c1)CCCc1cn[nH]c1-2`, the GI50 [1] was > 100 µM (inactive), the GI50 [2] was > 100 µM (inactive) and the GI50 [3] was > 100 µM (inactive). For the same compound, the GI50 [4] was > 100 µM (inactive).
With `N#Cc1c(NC(=S)Nc2ccc(Cl)cc2)sc2c1CCCC2` the GI50 [7] was > 100 µM (inactive).
`CC(=O)OC/C=C\Cn1nc(Br)c(=O)[nH]c1=O` was tested, and the GI50 [5] was 21.5 µM (inactive) and the GI50 [7] was 9.77 µM (inactive).
`O=C1C=C(N2CC2)C(=O)C=C1N1CC1` was tested, and the GI50 [6] was 0.159 µM (active), the GI50 [1] was 0.138 µM (active) and the GI50 [3] was 0.117 µM (active). For the same compound, the GI50 [5] was 2.39 µM (inactive), the GI50 [4] was 0.354 µM (active) and the GI50 [7] was 0.348 µM (active).
For `CCOC(=O)C1(C(=O)OCC)CSC1`, the GI50 [5] was > 100 µM (inactive).
For `OCC(CO)CC1COc2ccccc2O1` (centres undefined), the GI50 [5] was > 10 µM (inactive).
